Activity calls are given as the source filed them.
Assays:
[1] = biological target: T1, Oxysterols receptor LXR-beta (Homo sapiens, UniProt P55055); format: functional, cell-based;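 further: agonist activity at LXR measured by a cell-based luminescence readout across a dose range, run as a counterscreen for daf-12 agonists; HEK293 cells with Gal4-LXR fusion and GAL4-driven luciferase reporter; potency for activation of Gal4-LXR reporter so compounds are agonists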
T1 sequence (P55055 whole entry): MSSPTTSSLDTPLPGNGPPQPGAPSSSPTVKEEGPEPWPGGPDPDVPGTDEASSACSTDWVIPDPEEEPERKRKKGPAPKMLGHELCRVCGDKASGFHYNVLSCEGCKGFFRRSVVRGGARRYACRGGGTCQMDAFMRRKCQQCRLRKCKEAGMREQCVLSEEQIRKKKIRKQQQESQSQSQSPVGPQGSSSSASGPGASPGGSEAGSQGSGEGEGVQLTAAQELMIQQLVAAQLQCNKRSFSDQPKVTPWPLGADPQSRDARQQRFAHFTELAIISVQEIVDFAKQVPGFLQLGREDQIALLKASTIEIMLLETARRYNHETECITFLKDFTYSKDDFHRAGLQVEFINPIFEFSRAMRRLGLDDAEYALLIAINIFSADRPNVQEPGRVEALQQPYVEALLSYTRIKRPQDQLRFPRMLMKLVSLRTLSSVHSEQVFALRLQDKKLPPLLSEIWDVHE

[2] = P. falciparum 3D7-ScDHODH growth inhibitors, dose response, SYBR Green, dry powder samples (AID 1159570); format: functional, cell-based;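 further: parasite growth measured after 72 hours of compound exposure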
[3] = HepG2 cell cytotoxicity, dose response, cytotoxicity control, plate reader, dry powder samples (AID 1159569); format: functional, cell-based;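 further: inhibitor potency with signal falling toward the positive control level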
[4] = P. falciparum Dd2 growth inhibitors, dose response, SYBR Green, cherry-picked samples (AID 1159567); format: functional, cell-based
[5] = P. falciparum Dd2 growth inhibitors, dose response, SYBR Green, dry powder samples (AID 1159566); format: functional, cell-based;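 further: potency for growth inhibition with lower SYBR green DNA signal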
[6] = P. falciparum ATP4 D1247Y mutant growth inhibitors, dose response, NITD609-resistant line, SYBR Green, dry powder (AID 1159571); format: functional, cell-based;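 further: parasites synchronized at ring stage by sorbitol before testing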
[7] = T. cruzi growth inhibition in host cells, dose response, cell-based, plate reader, dry powder, set 2 (AID 652275); format: functional
[8] = biological target: T2, RNA-binding protein pos-1 (Caenorhabditis elegans, UniProt G5EF15); test: inhibitors of POS-1/mex-3 RNA binding, dose response, biochemical, fluorescence polarization (AID 1964);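 further: purified POS-1 fused to maltose binding protein made in E. coli; potency of compounds blocking POS-1 binding to fluorescent RNA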
T2 sequence (G5EF15 whole entry): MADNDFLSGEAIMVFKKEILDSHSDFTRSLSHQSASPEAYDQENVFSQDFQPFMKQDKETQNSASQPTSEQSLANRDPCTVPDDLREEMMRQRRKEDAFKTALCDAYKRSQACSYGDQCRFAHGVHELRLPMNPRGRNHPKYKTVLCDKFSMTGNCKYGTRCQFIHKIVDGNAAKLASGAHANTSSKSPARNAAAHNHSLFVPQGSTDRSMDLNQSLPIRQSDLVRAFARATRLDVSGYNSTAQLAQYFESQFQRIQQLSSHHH

[9] = test system: Streptococcus sp. 'group A'; test: growth inhibition of control SK(-) GAS strain, dose response, counter-screen for streptokinase expression inhibitor project, luminescence, kanamycin, BacTiterGlo, confirmation (AID 1900); format: functional, organism-based; conditions: Streptococcus sp. 'group A'
[10] = biological target: T3, Zinc finger protein mex-5 (Caenorhabditis elegans, UniProt Q9XUB2); test: MEX-5/TCR-2 RNA interaction inhibitors, dose response, biochemical, C. elegans, fluorescence polarization (AID 1960)
T3 sequence (Q9XUB2 whole entry): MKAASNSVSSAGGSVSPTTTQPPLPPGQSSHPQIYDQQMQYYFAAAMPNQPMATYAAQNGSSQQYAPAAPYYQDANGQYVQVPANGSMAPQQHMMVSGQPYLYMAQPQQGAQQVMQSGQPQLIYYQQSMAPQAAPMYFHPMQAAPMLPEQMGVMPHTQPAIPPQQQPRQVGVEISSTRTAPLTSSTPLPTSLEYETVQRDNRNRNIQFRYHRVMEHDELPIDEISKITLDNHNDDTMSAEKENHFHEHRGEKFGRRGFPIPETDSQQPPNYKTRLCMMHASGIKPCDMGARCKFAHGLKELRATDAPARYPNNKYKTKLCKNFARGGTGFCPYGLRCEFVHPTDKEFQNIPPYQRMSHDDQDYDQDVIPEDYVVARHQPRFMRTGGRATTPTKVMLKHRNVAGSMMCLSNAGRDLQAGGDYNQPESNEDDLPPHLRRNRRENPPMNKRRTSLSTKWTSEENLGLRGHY

Streptokinase A = biological target: T4, Streptokinase A (Streptococcus pyogenes serotype M1, UniProt P10520); test: S. pyogenes streptokinase expression inhibitors, potency, dose response, plasminogen activation absorbance, OD405 (AID 1914); format: functional, Streptococcus pyogenes M1 GAS;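 further: secreted streptokinase activity via plasminogen activation per viability signal from cell pellet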
T4 sequence (P10520 whole entry): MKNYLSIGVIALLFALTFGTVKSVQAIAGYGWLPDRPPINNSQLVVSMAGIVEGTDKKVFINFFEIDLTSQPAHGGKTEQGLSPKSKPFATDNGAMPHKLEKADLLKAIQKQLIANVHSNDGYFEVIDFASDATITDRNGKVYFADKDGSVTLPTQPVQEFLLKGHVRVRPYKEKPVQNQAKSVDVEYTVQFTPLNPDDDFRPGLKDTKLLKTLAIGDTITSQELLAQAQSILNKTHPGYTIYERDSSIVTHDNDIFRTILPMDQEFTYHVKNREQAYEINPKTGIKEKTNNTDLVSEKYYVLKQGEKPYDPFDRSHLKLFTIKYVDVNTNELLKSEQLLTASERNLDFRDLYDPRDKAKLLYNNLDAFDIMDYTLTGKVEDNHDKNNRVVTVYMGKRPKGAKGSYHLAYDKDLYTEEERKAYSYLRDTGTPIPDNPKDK

Streptococcus = test: Group A Streptococcus viability loss, dose response, counter-screen for streptokinase expression inhibitor project, luminescence, BacTiterGlo (AID 1915); format: functional, organism-based; conditions: Streptococcus;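 further: potency for reduction of bacterial viability or growth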
Nonstructural protein 1 = Nonstructural protein 1 (Influenza A virus, UniProt Q194T2); format: functional, Influenza A virus (A/California/07/2009(H1N1))
fMet-Leu-Phe receptor = biological target: T5, fMet-Leu-Phe receptor (Homo sapiens, UniProt P21462); test: FPR ligands, dose response (AID 519); format: functional
T5 sequence (P21462 whole entry): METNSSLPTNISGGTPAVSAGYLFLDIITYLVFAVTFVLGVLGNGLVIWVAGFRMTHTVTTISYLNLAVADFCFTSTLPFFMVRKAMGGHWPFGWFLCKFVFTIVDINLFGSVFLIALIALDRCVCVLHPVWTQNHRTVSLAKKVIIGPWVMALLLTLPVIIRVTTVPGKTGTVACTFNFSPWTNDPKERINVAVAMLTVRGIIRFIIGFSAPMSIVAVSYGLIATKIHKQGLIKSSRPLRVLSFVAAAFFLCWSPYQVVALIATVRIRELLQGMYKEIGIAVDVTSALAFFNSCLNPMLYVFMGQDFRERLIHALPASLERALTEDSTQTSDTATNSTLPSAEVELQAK

HeLa = test: HeLa cell cytotoxicity, dose response, cytotoxicity control, ATP luminescence, cherry-pick samples (AID 687004); format: functional, cell-based; conditions: Homo sapiens
H9c2 = test: cells; format: functional, cell-based; conditions: Rattus norvegicus, H9c2, Myocardium;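 further: confirmatory concentration-response retest of ultra-high-throughput screening hits for modulation of myocardial damage; cell death induced by hydrogen peroxide oxidative stress; compound pretreatment for 60 min then peroxide exposure for 2 h; potency is for protecting the cells against peroxide damage rather than for killing them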
Caspase-6 = biological target: T6, Caspase-6 (Homo sapiens, UniProt P55212); test: human caspase-6 inhibitors, dose response, biochemical, VEID-R110 fluorescence, cherry-pick (AID 720632)
T6 sequence (P55212 whole entry): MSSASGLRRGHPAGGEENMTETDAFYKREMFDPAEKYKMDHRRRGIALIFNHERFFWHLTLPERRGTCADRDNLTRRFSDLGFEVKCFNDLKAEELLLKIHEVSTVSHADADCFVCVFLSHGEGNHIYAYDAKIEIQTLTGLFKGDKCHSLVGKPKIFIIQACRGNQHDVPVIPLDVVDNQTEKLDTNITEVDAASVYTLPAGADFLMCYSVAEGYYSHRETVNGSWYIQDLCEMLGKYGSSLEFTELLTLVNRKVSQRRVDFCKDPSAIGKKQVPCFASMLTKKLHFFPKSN

Sequence of Nonstructural protein 1 (Q194T2 whole entry): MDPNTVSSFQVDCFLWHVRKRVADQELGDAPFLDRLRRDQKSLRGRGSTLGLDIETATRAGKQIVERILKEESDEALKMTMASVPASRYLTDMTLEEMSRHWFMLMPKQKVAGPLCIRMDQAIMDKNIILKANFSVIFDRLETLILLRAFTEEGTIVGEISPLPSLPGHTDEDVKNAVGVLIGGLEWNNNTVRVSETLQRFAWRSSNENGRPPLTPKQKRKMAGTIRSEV

**Q.** With Cc1cc2ncc(-c3ccccc3)nc2cc1C [AG1295] as the compound, how does the EC50 [1] read?
**A.** Its EC50 is > 67.5 µM (inactive).

**Q.** For C[C@H]1CN([C@@H](C)CO)C(=O)c2c(c3ccccc3n2C)-c2ccccc2CO[C@@H]1CN(C)Cc1ccc(Cl)c(Cl)c1, which AC50 [2] is on record?
**A.** Its AC50 is 3.11 µM (active).

**Q.** And the AC50 [3]?
**A.** The AC50 was 18.4 µM (active).

**Q.** And the AC50 [4]?
**A.** Its AC50 is 1.94 µM (active).

**Q.** What about the AC50 [5] of the same compound?
**A.** The AC50 was 1.43 µM (active).

**Q.** What about the AC50 [6] of the same compound?
**A.** The AC50 was 1.87 µM (active).

**Q.** With C[C@H]1CN([C@@H](C)CO)C(=O)c2cccc(NC(=O)c3ccncc3)c2O[C@@H]1CN(C)Cc1cc(Cl)ccc1Cl as the compound, how does the AC50 [7] read?
**A.** The AC50 was 0.0573 µM (active).

**Q.** What does the source list for CCN(CC)c1ccc(/C=N/C(C#N)=C(\N)C#N)cc1?
**A.** EC50 [8]: 281 µM (active); EC50 [9]: > 150 µM (not active); EC50 [10]: 114 µM (inconclusive); EC50 (Streptokinase A): > 150 µM (not active); EC50 (Streptococcus): > 150 µM (not active); IC50 (Nonstructural protein 1): > 100 µM (active); Ki (fMet-Leu-Phe receptor): > 66.7 µM (inactive)

**Q.** With CN1C(=O)c2cc(NC(=O)NC3CCCC3)ccc2OC[C@H]2O[C@@H](CC(=O)NC3CCC3)CC[C@@H]21 as the compound, how does the AC50 (HeLa) read?
**A.** Its AC50 is 25.9 µM (active).

**Q.** Which results are given for CCOC(=O)C1=C(COC(=O)c2ccc([N+](=O)[O-])o2)NC(=O)NC1C (stereo not given)?
**A.** IC50 (H9c2): > 79 µM (inactive); AC50 (Caspase-6): 30 µM (active)

**Q.** With CC(C)(C)[S+]([O-])N1Cc2cc(C(=O)NCc3ccc4c(c3)OCO4)nc(-c3cccc(C#CCC4CCCC4)c3)c2[C@@H]1CCO (stereo not given in full) as the compound, how does the AC50 [7] read?
**A.** Its AC50 is 0.883 µM (active).

**Q.** What about the AC50 [4] of the same compound?
**A.** Its AC50 is 3.54 µM (active).

**Q.** Which Ki (fMet-Leu-Phe receptor) does the source give for COc1ccc(C)cc1NC(=O)C1CCCCC1C(=O)O (stereo not given) here?
**A.** The Ki was > 66.7 µM (inactive).
